Data reported in patent US20190175507A1, “COMPOSITIONS FOR ORAL ADMINISTRATION OF ACTIVE AGENTS” (Tamarisk Technologies Group LLC, priority 2016, published 2019).

Experiment: Pharmacokinetics of resveratrol-containing particles in orally dosed Sprague-Dawley rats
Format: in vivo
Details: rat, plasma, 20 mg/kg
Procedure: Parameters were estimated using Watson pharmacokinetic software 7.4.2 (Thermo Electron Corporation) using a non-compartmental approach consistent with the various routes of administration. All parameters were generated from […] individual animal concentrations in plasma. Parameters were estimated using nominal sampling times to be relative to the start of each dose administration (within an acceptable tolerance limit). As no dose formulation samples were analyzed, the nominal calculated dose for active ingredient (20 mg/kg, as per the study protocol, was used for dose-normalization purposes). The area under the test item concentration versus time curve (AUC) was calculated using the linear-log linear trapezoidal method. AUC was not calculated for PK profiles with less than 3 consecutive quantifiable concentrations of test article at separate time points. When practical, the terminal elimination phase of each concentration versus time curve was identified using at least the final three observed concentration values. The slope of the terminal elimination phase was determined using linear regression on the unweighted concentration data. […] The parameters described below were reported to 3 significant figures. Animals were fasted overnight, food was returned 4 hours post dosing. […] Aggregated data is summarized for individual animals in Table 4, below.

Question: For `Oc1ccc(C=Cc2cc(O)cc(O)c2)cc1` [Unencapsulated Resveratrol, Resveratrol], which concentration at 0.5 h (oral) is on record?
Answer: The concentration at 0.5 h was 78.4 ng/mL.

Question: What about the concentration at 1 h (oral) of the same compound?
Answer: The concentration at 1 h was 29.3 ng/mL.

Question: What about the concentration at 2 h (oral) of the same compound?
Answer: The concentration at 2 h was 47.2 ng/mL.

Question: What about the Cmax (po) of the same compound?
Answer: The Cmax was 82.4 ng/mL.

Question: What about the AUC (po, read-out: AUC(0-x)) of the same compound?
Answer: Its AUC is 82.8 ng·h/mL.
